Measurements taken from paper PMC9501058, “Clinical Effectiveness and Pharmacokinetics of Dalbavancin in Treatment-Experienced Patients with Skin, Osteoarticular, or Vascular Infections” (Pharmaceutics, 2022).
Read-outs that look alike come from different tables or passages of the source.

Experiments:
[1] = ref Dunne et al. 16; cited from earlier work
clinical = conditions: human, in vivo, iv
[2] = 35 healthy subjects, single infusion of 1500 mg; ref Rappo et al. 15; cited from earlier work
[3] = cited from earlier work
Adverse events under DBV = format: in vivo, human
Description: Table 1 Overall patients’ characteristics at the baseline. | column: Overall / n = 76; Intensive PK Study (n = 41) / Group 0 (n = 17)

[4] = tested on: plasma proteins (mainly albumin); conditions: human; cited from earlier work
[5] = human, in vivo
[6] = single 1000 mg infusion; ref Nicolau et al. 14; cited from earlier work

CN[C@H]1C(=O)N[C@@H]2Cc3ccc(cc3)Oc3cc4cc(c3O[C@@H]3O[C@H](C(=O)O)[C@@H](O)[C@H](O)[C@H]3NC(=O)CCCCCCCCC(C)C)Oc3ccc(cc3Cl)[C@@H](O)[C@@H]3NC(=O)[C@H](NC(=O)[C@@H]4NC(=O)[C@@H](NC2=O)c2cc(cc(O)c2Cl)Oc2cc1ccc2O)c1ccc(O)c(c1)-c1c(O[C@H]2O[C@H](CO)[C@@H](O)[C@H](O)[C@@H]2O)cc(O)cc1[C@@H](C(=O)NCCCN(C)C)NC3=O [DBV, Dalbavancin]
Mean bone/plasma AUC [1]: 13.1%
Cmax (clinical; 1500 mg, Cmax I dose): 343 µg/mL
Cmax (clinical; Cmax II dose): 337 µg/mL
Penetration into the epithelial-lining fluid [2]: 36%
Elimination half-life [3]: 220 to 240 h
AEs: yes (Adverse events under DBV; number of patients [%], group 0 (n = 17): single 1500 mg dose): 1 [6%]
AEs: yes (Adverse events under DBV; number of patients, overall n = 76): 1
Protein binding (mean percentage in humans) [4]: 93%
AUC0–3w [5]: 39,985 [37,045–39,985] mg/L·h
Cmax II dose [5]: 379.5 [321.3–448.8] mg/L
AUC0–1w ([5]; iv): 26,693 [20,842–28,630] mg/L·h
AUC0–2w ([5]; iv): 34,168 [25,336–37,301] mg/L·h
AUC0–3w ([5]; iv): 39,270 [28,876–43,971] mg/L·h
Cmax I dose ([5]; iv): 347.0 [292.4–479.2] mg/L
Cumul. AUC0–4w ([5]; iv): 41,681 [32,055–48,180] mg/L·h
Mean penetration into skin blister fluid compared with plasma [6]: 59.6%
